The values below come from article PMC12764611 (Nature Communications, 2025).

The assay has as its target T1, IGFBP7 (endogenous, HK-2 cells, CETSA) (Homo sapiens, UniProt Q16270).
T1 sequence (Q16270 27-282): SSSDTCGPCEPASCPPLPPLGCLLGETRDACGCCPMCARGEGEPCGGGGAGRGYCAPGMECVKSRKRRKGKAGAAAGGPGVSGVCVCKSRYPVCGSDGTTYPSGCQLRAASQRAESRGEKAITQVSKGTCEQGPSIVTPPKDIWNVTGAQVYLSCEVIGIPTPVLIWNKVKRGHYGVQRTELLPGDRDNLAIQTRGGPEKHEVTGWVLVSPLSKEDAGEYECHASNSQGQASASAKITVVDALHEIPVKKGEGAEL
The assay is described as follows: cellular thermal shift assay, immunoblot. The settings on record: HK-2 cells with or without LA pretreatment, then lysed and heated. It is filed as cell-based. A general note: Immunoblotting shows a protein as a band on a membrane.

`CN1c2c(nc(N)[nH]c2=O)NC[C@@H]1CNc1ccc(C(=O)N[C@@H](CCC(=O)O)C(=O)O)cc1` [levomefolic acid]: the “cellular thermal shift assay, immunoblot” value was “analysis showing the stabilisation of IGFBP7 in vitro, with or without LA treatment”.
